Measurements taken from patent US7691965B2, “Helical synthetic peptides that stimulate cellular cholesterol efflux” (The Regents of the University of California, priority 2002, dated 2010).
Each block holds one molecule with its values, some of them ahead of it. Where a SMILES comes first, the peptide text is derived from it.

Tests used:
ABCA1 [1] = target: T1, ABCA1 (Mus musculus, UniProt P41233); assay: Cellular cholesterol efflux from [3H]cholesterol-labeled J774 macrophages with and without cAMP analog; type: cell-based; design: endogenous in cells; host or cells: J774 macrophages treated with a cAMP analog (CPT-cAMP or 8-bromo-cAMP); conditions: for ABCA1-dependent cholesterol efflux (result in words): lipid-free acceptor, J774 macrophages with vs without cAMP analog
T1 sequence (P41233 whole entry): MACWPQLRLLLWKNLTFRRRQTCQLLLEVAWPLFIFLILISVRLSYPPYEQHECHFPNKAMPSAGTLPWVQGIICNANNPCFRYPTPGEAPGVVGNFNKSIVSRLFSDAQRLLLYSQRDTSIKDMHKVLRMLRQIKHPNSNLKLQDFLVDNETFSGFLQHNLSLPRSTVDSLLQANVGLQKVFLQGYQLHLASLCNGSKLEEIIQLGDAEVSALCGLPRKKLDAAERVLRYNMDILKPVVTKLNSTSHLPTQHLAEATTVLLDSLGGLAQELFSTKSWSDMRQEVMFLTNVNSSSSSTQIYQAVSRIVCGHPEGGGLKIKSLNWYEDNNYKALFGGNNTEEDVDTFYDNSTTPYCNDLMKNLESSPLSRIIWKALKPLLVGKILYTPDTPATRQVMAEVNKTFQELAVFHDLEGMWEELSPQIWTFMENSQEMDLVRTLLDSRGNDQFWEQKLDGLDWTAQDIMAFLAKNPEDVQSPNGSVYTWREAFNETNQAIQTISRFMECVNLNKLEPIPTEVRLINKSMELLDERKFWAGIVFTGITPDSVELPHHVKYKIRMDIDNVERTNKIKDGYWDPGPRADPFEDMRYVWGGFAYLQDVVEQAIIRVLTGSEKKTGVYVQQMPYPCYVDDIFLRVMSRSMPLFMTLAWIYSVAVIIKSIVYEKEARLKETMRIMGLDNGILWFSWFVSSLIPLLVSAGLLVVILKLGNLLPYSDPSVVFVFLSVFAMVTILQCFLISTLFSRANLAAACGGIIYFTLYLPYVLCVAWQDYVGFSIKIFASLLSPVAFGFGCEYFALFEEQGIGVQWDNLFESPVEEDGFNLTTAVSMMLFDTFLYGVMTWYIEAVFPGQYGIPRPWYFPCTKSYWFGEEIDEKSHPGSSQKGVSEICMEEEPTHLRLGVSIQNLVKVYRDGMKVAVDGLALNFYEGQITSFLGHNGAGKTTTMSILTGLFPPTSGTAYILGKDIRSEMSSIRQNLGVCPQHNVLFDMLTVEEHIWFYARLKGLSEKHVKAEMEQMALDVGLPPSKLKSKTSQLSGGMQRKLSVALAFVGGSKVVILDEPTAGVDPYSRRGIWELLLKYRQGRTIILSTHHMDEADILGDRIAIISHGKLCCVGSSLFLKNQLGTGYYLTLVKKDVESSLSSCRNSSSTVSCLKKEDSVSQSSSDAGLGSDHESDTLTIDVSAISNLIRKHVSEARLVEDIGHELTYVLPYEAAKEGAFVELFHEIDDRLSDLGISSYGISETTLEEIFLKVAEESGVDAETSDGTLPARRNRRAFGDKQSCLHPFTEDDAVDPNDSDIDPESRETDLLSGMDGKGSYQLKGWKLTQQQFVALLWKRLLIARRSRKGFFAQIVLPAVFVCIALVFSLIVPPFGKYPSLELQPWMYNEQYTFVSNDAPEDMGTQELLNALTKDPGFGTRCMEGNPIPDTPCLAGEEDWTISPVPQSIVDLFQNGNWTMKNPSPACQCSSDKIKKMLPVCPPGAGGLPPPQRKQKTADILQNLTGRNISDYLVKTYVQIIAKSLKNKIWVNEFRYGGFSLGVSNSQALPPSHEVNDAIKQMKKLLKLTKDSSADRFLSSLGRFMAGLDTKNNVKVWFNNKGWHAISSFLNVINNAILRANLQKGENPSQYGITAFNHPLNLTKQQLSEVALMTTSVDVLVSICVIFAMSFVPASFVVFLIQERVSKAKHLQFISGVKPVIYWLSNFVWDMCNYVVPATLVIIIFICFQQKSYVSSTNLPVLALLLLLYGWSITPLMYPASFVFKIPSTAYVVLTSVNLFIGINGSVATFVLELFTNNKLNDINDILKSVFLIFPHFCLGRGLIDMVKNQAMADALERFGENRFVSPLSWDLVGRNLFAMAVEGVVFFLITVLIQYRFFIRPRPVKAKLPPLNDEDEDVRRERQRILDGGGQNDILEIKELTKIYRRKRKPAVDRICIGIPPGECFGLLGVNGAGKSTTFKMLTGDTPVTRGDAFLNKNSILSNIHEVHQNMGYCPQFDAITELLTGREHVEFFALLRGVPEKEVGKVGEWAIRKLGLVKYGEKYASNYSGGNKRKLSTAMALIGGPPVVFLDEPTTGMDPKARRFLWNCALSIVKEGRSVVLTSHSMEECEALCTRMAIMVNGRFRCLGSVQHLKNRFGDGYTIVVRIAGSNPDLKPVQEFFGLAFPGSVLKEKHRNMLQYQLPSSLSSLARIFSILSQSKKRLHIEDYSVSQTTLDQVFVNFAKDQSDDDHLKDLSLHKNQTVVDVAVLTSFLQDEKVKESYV
Source text: Suitable cholesterol efflux assays are described in, e.g., Bielicki, J. K and Oda, M. N., Biochemistry, 41:2089-2096 (2002); Jia, Z. et al., Biochem. Biophys. Res. Common., 297:206-213 (2002). In some embodiments, a polypeptide known to mediate cholesterol efflux (e.g., helix 9/10 of Apo A-I) is used to screen for additional mediators of cholesterol efflux in a cell based assay. For example, cell lines in which cholesterol efflux can be enhanced using a cAMP analog that up-regulates ABCA1 protein expression (e.g., J774 macrophages) can conveniently be used to assess the ability of an Apo A-I, Apo A-II, Apo A-IV, Apo E, Apo C-I, Apo C-II, Apo C-III, or Serum Amyloid A peptide to mediate cholesterol efflux. The cells are incubated with labeled cholesterol (e.g., [^3H]cholesterol) under conditions appropriate for cholesterol uptake by the cells. cAMP or cAMP analogs (e.g., CPT-cAMP) is incubated with the cells for a suitable time before the initiation of cellular cholesterol efflux, i.e., prior to contacting the cells with helix 9/10 of Apo A-I or the test compound. Measurement of labeled cholesterol appearing in the medium is used to determine the cholesterol efflux mediating activity of the test compound.
Cellular Cholesterol Efflux Protocol—J774 macrophages were used to assess the cholesterol efflux properties of synthetic amphipathic α-helical peptides (Bielicki, J. K and Oda, M. N., Biochemistry, 41:2089-2096 (2002); Jia, Z. et al., Biochem. Biophys. Res. Common., 297:206-213 (2002)). This cell line was chosen because cholesterol efflux can be enhanced using a cAMP analog that up-regulates ABCA1 protein expression. The cells were seeded onto 24-well culture plates and labeled for 48 h with [^3H]cholesterol in RPMI 1640 supplemented with 1% fetal bovine serum. The cAMP analog CPT-cAMP was added (0.3 mM, final concentration) to the cells at least 12 h before the initiation of cellular cholesterol efflux. Synthetic peptides in lipid-free form were added to cells in serum-free RPMI. The lipid-free form of full-length recombinant apoA-I was used as a positive control to define apparent ABCA1-dependent cholesterol efflux in the presence and absence of cAMP stimulation. Efflux results were expressed as a percentage of the initial cellular [^3H] appearing in the medium as a function of time subtracting the background efflux obtained using serum-free medium alone.

[2] = DMPC clearance assay (solubilization of a turbid phospholipid solution); type: physicochemical
Source text: Relative Lipid Binding Affinity, Hydrophobicity, and Amphiphilicity of Synthetic Peptides-In some experiments, the relative lipid binding affinity of unique peptides was quantified using a surface balance technique (Gillotte, K L. et al., J. Biol. Chem., 274:2021-2028 (1999)). For routine analyses, a turbid solution of dimyristoylphosphatidylcholine (DMPC) was used to assess the relative capacity of synthetic peptides to solubilize phospholipid as described (Palgunachari, M. N. et al., Arterioscler. Thromb. Vasc. Biol., 16:328-338 (1996); McLean, L. R. and […]., Biochim. Biophys. Acta, 1167:289-295 (1993)). The DMPC was used at a final concentration of 0.08 mg/ml in 10 mM Tris-saline (pH 7.4). The final weight ratio of peptides relative to DMPC was 1:1. The absorbance (400 nm) of samples was monitored continuously over a period of 30 min at 25° C. Hydrophobicity of helical peptides was calculated using the consensus scale (Eisenberg D., Annu. Rev. Biochem., 53:593-623 (1984)). The hydrophobic moment (kcal/mol) of synthetic peptides, which is a measure of helix amphiphilicity, was calculated as described by Eisenberg et al. (Eisenberg, D. et al., Nature, 299:371-374 (1982)).

ABCA1 [3] = target: T1, ABCA1; assay: ABCA1 stabilization: immunoblot of ABCA1 protein in J774 macrophage membranes after cAMP withdrawal; type: cell-based; design: J774 macrophages were used to assess relative ABCA1 protein levels in the presence and absence of synthetic peptides; endogenous in cells; host or cells: J774 macrophages treated with a cAMP analog (CPT-cAMP or 8-bromo-cAMP); conditions: 20 μg/ml peptide, 6 h without cAMP, J774 macrophages
Description: J774 macrophages were incubated (18 h) with 0.5 mM 8-bromo-cAMP in medium containing 0.1% bovine serum albumin to up-regulate ABCA1 protein expression. Washed cells were subsequently exposed for 6 h to bovine serum albumin medium with (+) or without (−) 8-bromo-cAMP and the indicated synthetic peptides (20 μg/ml). None refers to no peptides. The cellular membrane content of ABCA1 protein was measured by immunoblot analysis.
ABCA1 Stabilization—J774 macrophages were used to assess relative ABCA1 protein levels in the presence and absence of synthetic peptides. Cells were grown in 10% fetal bovine serum, extensively rinsed, and incubated (18 h) with Dulbecco's modified Eagle's medium containing 0.1% bovine serum albumin plus the cAMP analog 8-bromo-cAMP. Cells were next exposed to synthetic peptides or serum-free medium in the absence of the cAMP stimulus to evaluate whether ABCA1 protein was stabilized or degraded. Relative levels of ABCA1 protein were assessed by immunoblot analysis of cell membranes (Oram, J. F. et al., J. Biol. Chem., 278:52379-52385 (2003)). ABCA1 was visualized using an enhanced chemiluminescence detection assay.
To assess ABCA1 stabilization, J774 macrophages were treated with a cAMP analog to up-regulate ABCA1 protein expression and then incubated for 6 h without cAMP. In the absence of inducer, ABCA1 protein is rapidly degraded in these cells (FIG. 9). […] Thus, it appears that the helical combinations that stimulate cholesterol efflux also stabilize the ABCA1 transporter.

[4] = Relative lipid binding affinity by surface balance technique (monolayer exclusion pressure); type: physicochemical; conditions: for Monolayer exclusion pressure: surface balance technique
Source text: Relative Lipid Binding Affinity, Hydrophobicity, and Amphiphilicity of Synthetic Peptides—In some experiments, the relative lipid binding affinity of unique peptides was quantified using a surface balance technique (Gillotte, K L. et al., J. Biol. Chem., 274:2021-2028 (1999)). For routine analyses, a turbid solution of dimyristoylphosphatidylcholine (DMPC) was used to assess the relative capacity of synthetic peptides to solubilize phospholipid as described (Palgunachari, M. N. et al., Arterioscler. Thromb. Vasc. Biol., 16:328-338 (1996); McLean, L. R. and Hagaman, K. A., Biochim. Biophys. Acta, 1167:289-295 (1993)). The DMPC was used at a final concentration of 0.08 mg/ml in 10 mM Tris-saline (pH 7.4). The final weight ratio of peptides relative to DMPC was 1:1. The absorbance (400 nm) of samples was monitored continuously over a period of 30 min at 25° C. Hydrophobicity of helical peptides was calculated using the consensus scale (Eisenberg D., Annu. Rev. Biochem., 53:593-623 (1984)). The hydrophobic moment (kcal/mol) of synthetic peptides, which is a measure of helix amphiphilicity, was calculated as described by Eisenberg et al. (Eisenberg, D. et al., Nature, 299:371-374 (1982)).

ABCA1 [5] = target: T1, ABCA1; assay: ABCA1 stabilization: immunoblot of ABCA1 protein in J774 macrophage membranes after cAMP withdrawal; type: cell-based; design: J774 macrophages were used to assess relative ABCA1 protein levels in the presence and absence of synthetic peptides; endogenous in cells; host or cells: J774 macrophages treated with a cAMP analog (CPT-cAMP or 8-bromo-cAMP); conditions: concentration dependence studies, J774 macrophages

Molecule: CC(=O)N1CCC[C@H]1C(=O)N[C@@H](C)C(=O)N[C@@H](CC(C)C)C(=O)N[C@@H](CCC(=O)O)C(=O)N[C@@H](CC(=O)O)C(=O)N[C@@H](CC(C)C)C(=O)N[C@@H](CCCNC(=N)N)C(=O)N[C@@H](CCC(N)=O)C(=O)NCC(=O)N[C@@H](CC(C)C)C(=O)N[C@@H](CC(C)C)C(=O)N[C@@H](CC(C)C)C(=O)N[C@@H](CCCCN)C(=O)N[C@@H](CC(C)C)C(=O)N[C@@H](CC(C)C)C(=O)N[C@@H](CC(=O)O)C(=O)N[C@@H](CC(N)=O)C(=O)N[C@@H](Cc1c[nH]c2ccccc12)C(=O)N[C@@H](CC(=O)O)C(=O)N[C@@H](CO)C(=O)N[C@H](C(=O)N[C@H](C(=O)N[C@@H](CO)C(=O)N[C@H](C(=O)N[C@@H](Cc1ccccc1)C(=O)N[C@@H](CO)C(=O)N[C@@H](CCCCN)C(=O)N[C@@H](CC(C)C)C(=O)N[C@@H](CCCNC(=N)N)C(=O)N[C@@H](CCC(=O)O)C(=O)N[C@@H](CCC(N)=O)C(=O)N[C@@H](CC(C)C)C(=O)NCC(N)=O)[C@@H](C)O)[C@@H](C)O)C(C)C [Helical peptide 9/1] (Ac-PALEDLRQGLLLKLLDNWDSVTSTFSKLREQLG-NH2)
ABCA1-dependent cholesterol efflux (result in words) (ABCA1 [1]): stimulated cholesterol efflux in an ABCA1-dependent manner | DMPC clearance [2]: + | ABCA1 stabilization (result in words) (ABCA1 [3]): retained ABCA1 stabilization activity

Molecule: CC(=O)N[C@@H](CC(C)C)C(=O)N[C@@H](CCCCN)C(=O)N[C@@H](CC(C)C)C(=O)N[C@@H](CC(C)C)C(=O)N[C@@H](CC(=O)O)C(=O)N[C@@H](CC(N)=O)C(=O)N[C@@H](Cc1c[nH]c2ccccc12)C(=O)N[C@@H](CC(=O)O)C(=O)N[C@@H](CO)C(=O)N[C@H](C(=O)N[C@H](C(=O)N[C@@H](CO)C(=O)N[C@H](C(=O)N[C@@H](Cc1ccccc1)C(=O)N[C@@H](CO)C(=O)N[C@@H](CCCCN)C(=O)N[C@@H](CC(C)C)C(=O)N[C@@H](CCCNC(=N)N)C(=O)N[C@@H](CCC(=O)O)C(=O)N[C@@H](CCC(N)=O)C(=O)N[C@@H](CC(C)C)C(=O)NCC(N)=O)[C@@H](C)O)[C@@H](C)O)C(C)C [Helical peptide 1] (Ac-LKLLDNWDSVTSTFSKLREQLG-NH2)
cholesterol efflux relative to that obtained with full-length apoA-I (ABCA1 [1]; 75 μg/ml, cAMP-treated macrophages): 15% | ABCA1-dependent cholesterol efflux (result in words) (ABCA1 [1]): failed to stimulate ABCA1-dependent cholesterol efflux | lipid binding affinity (surface balance technique), result in words [4]: identical | Monolayer exclusion pressure [4]: 30 dynes/cm | ABCA1 stabilization (result in words) (ABCA1 [3]): failed to prevent ABCA1 degradation

concentration at which cholesterol efflux reached maximal levels (ABCA1 [1]; cAMP-treated J774 cells): 10 µg/mL | lowest concentration that prevented ABCA1 degradation (ABCA1 [5]): ~10 µg/mL
Molecule: full-length apoA-I: full-length recombinant His-tagged apolipoprotein A-I from a bacterial expression system, positive control [reference compound]
ABCA1-dependent cholesterol efflux (result in words) (ABCA1 [1]): increased dramatically upon the up-regulation of the ABCA1 transporter | lipid binding affinity (surface balance technique), result in words [4]: identical

Molecule: CC(=O)N1CCC[C@H]1C(=O)N[C@H](C(=O)N[C@@H](CC(C)C)C(=O)N[C@@H](CCC(=O)O)C(=O)N[C@@H](CO)C(=O)N[C@@H](Cc1ccccc1)C(=O)N[C@@H](CCCCN)C(=O)N[C@H](C(=O)N[C@@H](CO)C(=O)N[C@@H](Cc1ccccc1)C(=O)N[C@@H](CC(C)C)C(=O)N[C@@H](CO)C(=O)N[C@@H](C)C(=O)N[C@@H](CC(C)C)C(=O)N[C@@H](CCC(=O)O)C(=O)N[C@@H](CCC(=O)O)C(=O)N[C@@H](Cc1ccc(O)cc1)C(=O)N[C@H](C(=O)N[C@@H](CCCCN)C(=O)N[C@@H](CCCCN)C(=O)N[C@@H](CC(C)C)C(=O)N[C@@H](CC(N)=O)C(N)=O)[C@@H](C)O)C(C)C)C(C)C [Helical peptide 10] (Ac-PVLESFKVSFLSALEEYTKKLN-NH2)
ABCA1-dependent cholesterol efflux (result in words) (ABCA1 [1]; listed as Helix 10): does not mediate ABCA1-dependent cholesterol efflux | ABCA1-dependent cholesterol efflux (result in words) (ABCA1 [1]; listed as helix 10): poor mediator of cellular cholesterol efflux | Monolayer exclusion pressure [4]: 28 dynes/cm | ABCA1 stabilization (result in words) (ABCA1 [3]): failed to prevent ABCA1 degradation | ABCA1 stabilization (result in words) (ABCA1 [3]; listed as Helix 10): nor does it stabilize ABCA1
